Here are results for 4 compounds from patent publication US7816384B2, “Method for treating a demyelinating condition” (priority 2000, dated 2010).

Assay [1] concerns adoptive-transfer EAE in female SJL mice. Nature of the assay: Adoptive-transfer EAE, treatment with amlodipine (Example 1). The class given is in vivo, mouse. The following applies: two representative animals per group at sampling; clinical index 0-5; control group 2.8. How it is done: FIG. 1 illustrates the clinical course of adoptive-transfer EAE and the effect of treatment with amlodipine. SJL mice were injected with 3×10^7 MBP-activated cells. Starting from Day 5 post-immunization, mice were treated with amlodipine (30 μg as one daily subcutaneous injection) or vehicle (PBS), until Day 13 (Day 9 of treatment). Data represent mean±s.e.m. differences, at respective time-points, between the vehicle-treated group and the amlodipine-treated group. *=p<0.05; **=p<0.01 (students' unpaired, two-tailed t-test); n=8 per group. Induction of Experimental Autoimmune Encephalomyelitis (EAE). Adoptive-transfer EAE was induced in female SJL mice as described ([…] et al., 1998). In brief, lymph node cells were obtained 10 days after myelin basic protein/Complete Freund's Adjuvant immunization. Cells were cultured for 4 days with 50 μg/ml of myelin basic protein, then 3×10^7 cells/mouse were injected into syngeneic mice via tail veins. Onset of disease occurred after 7-9 days. Animals were graded according to a standard clinical index (0-5). Five days after immunization, animals began treatments with one daily injection of 200 μl of vehicle (PBS), or 30 μg of amlodipine in 200 μl of PBS. Neuropathology. At selected time-points, mice from the control and treated groups were perfused with PBS or glutaraldehyde, and the CNS was prepared for frozen or 1-μm epoxy sections, respectively. […]

The next assay has as its system EAE. The conditions noted are these: NBQX treatment in EAE; cited from earlier work.
The test system of assay [2] is AT-EAE in female SJL/J mice. In words: Adoptive-transfer EAE (AT-EAE), treatment with bepridil or nitrendipine (Example 2). The class given is in vivo, mouse. The following applies: for difference in average disease scores between vehicle and bepridil groups: bepridil 3 mg/kg from day 3 p.t. (n=14 vs 15); for average difference in disease scores vs vehicle: average over days 13-20 p.t.

Setting [3] is: bepridil 3 mg/kg s.c. daily from day 0.

As to `CCOC(=O)C1=C(COCCN)NC(C)=C(C(=O)OC)C1c1ccccc1Cl` (stereo not shown) [amlodipine, 3-ethyl-5-methyl-2-(2-aminoethoxymethyl)-4-(2-chlorophenyl)-1,4-dihydro-6-methyl-3,5-pyridinedicarboxylate], in assay [1], the average clinical score is listed as 1.3.

In the case of `NS(=O)(=O)c1cccc2c1c([N+](=O)[O-])cc1[nH]c(=O)c(=O)[nH]c12` [NBQX, 1,2,3,4-tetrahydro-6-nitro-2,3-dioxo-benzoquinoxaline-7-sulfonamide], the “course of disease, loss of oligodendrocytes and axonal damage” value in the assay with EAE is “significantly ameliorated the course of the disease and reduced loss of oligodendrocytes and axonal damage”.

Consider `CCOC(=O)C1=C(C)NC(C)=C(C(=O)OC)C1c1cccc([N+](=O)[O-])c1` (stereo not shown) [nitrendipine, ethyl methyl-1,4-dihydro-2,6-dimethyl-4-(m-nitrophenyl)-3,5-pyridinedicarboxylate], for which the “average amelioration of clinical impairment vs vehicle” value in assay [2] (nitrendipine 2.5 mg/kg s.c. daily from day 0, average over days 15-20 p.t.) was −1.77±0.11 points. In addition, the “amelioration of clinical impairment (disability score) vs vehicle” value in assay [2] (nitrendipine 2.5 mg/kg s.c. daily from day 0, day 15 p.t.) was found to be 1.5 points; in assay [2] (nitrendipine 2.5 mg/kg s.c. daily from day 0, day 16 p.t.) it was 1.7 points; in assay [2] (nitrendipine 2.5 mg/kg s.c. daily from day 0, day 17 p.t.) it was 1.9 points; in assay [2] (nitrendipine 2.5 mg/kg s.c. daily from day 0, day 18 p.t.), 2.25 points; in assay [2] (nitrendipine 2.5 mg/kg s.c. daily from day 0, day 19 p.t.) it was 1.65 points; in assay [2] (nitrendipine 2.5 mg/kg s.c. daily from day 0, day 20 p.t.) it was 1.6 points.

Consider `CC(C)COCC(CN(Cc1ccccc1)c1ccccc1)N1CCCC1` (stereo not shown) [bepridil], for which the “difference in average disease scores between vehicle and bepridil groups” value is on record as 1.07 points in assay [2] (day 13 p.t.), 1.20 points in assay [2] (day 14 p.t.), 0.99 points in assay [2] (day 15 p.t.) and 1.18 points in assay [2] (day 16 p.t.). The “average difference in disease scores between vehicle and bepridil groups” value in assay [2] (bepridil 3 mg/kg from day 3 p.t., average over days 13-16 p.t.) is recorded as −1.11±0.05 points. Also, the “delay of overt disease onset compared with vehicle” value in assay [2] (setting [3]) was “more than 5 days”. Moreover, the “average difference in disease scores vs vehicle” value in assay [2] (setting [3]) was 1.66±0.06 points; in assay [2] (bepridil 3 mg/kg s.c. daily from day 0, listed as Bepridil), −1.66±0.06 points. The “reduction of daily average disease score vs vehicle” value in assay [2] (bepridil 3 mg/kg s.c. daily from day 0, day 13 p.t.) is recorded as 1.8 points; in assay [2] (bepridil 3 mg/kg s.c. daily from day 0, day 14 p.t.) it was 2.0 points; in assay [2] (bepridil 3 mg/kg s.c. daily from day 0, day 15 p.t.), 1.45 points; in assay [2] (bepridil 3 mg/kg s.c. daily from day 0, day 16 p.t.), 1.65 points; in assay [2] (bepridil 3 mg/kg s.c. daily from day 0, day 17 p.t.), 1.60 points; in assay [2] (bepridil 3 mg/kg s.c. daily from day 0, day 18 p.t.) it was 1.60 points. Moreover, the “reduction of daily average disease score vs vehicle” value is on record as 1.70 points in assay [2] (bepridil 3 mg/kg s.c. daily from day 0, day 19 p.t.) and 1.5 points in assay [2] (bepridil 3 mg/kg s.c. daily from day 0, day 20 p.t.).
